The record followed here is patent US20250382256A1, “DICARBOXYLIC ACID DIESTERS” (DSM IP Assets B.V., priority 2018, published 2025).

The nature of series [1]: Vapor pressure of the purified diester. Type of series: physicochemical. To be noted: purified product.
Series [2] has as its system rumen liquor. Nature of the series: In vitro test for methane production (modified Hohenheim Forage value Test, HFT). It is filed as cell-based. To be noted: read-out: Methane inhibition. As to the method: A modified version of the “Hohenheim Forage value Test (HFT)” was used for testing the effect of specific compounds on the rumen functions mimicked by this in-vitro system. Principle: Feed (i.e. a TMR) (300 mg) is given into a syringe with a composition of rumen liquor and an appropriate mixture of buffers (i.e. rumen-fluid buffer mix: 25 ml) and the substances to be tested in the concentrations as outlined in table 2 (the inhibitors to be tested are diluted in ethanol to reach the respective concentration of dry matter in 50 μl). The solution is incubated at 39° C. for 8 h. The quantity of produced gas is measured and put into a formula for conversion. After the incubation the composition of gas is measured with a GC. TMR (44% concentrate, 6% hay, 37% maize silage and 13% grass silage) is sieved to 1 mm and weighed exactly into the syringes. One run contains 4 repetitions, each with 16 syringes and comprises substrate controls, which display the gas production without the effect of the tested compounds, carrier controls, which display the gas production in the presence of the carrier (solvent) only (i.e. EtOH used to dissolve the test compounds), and test samples (in the carrier), which contain the test substances in varying concentrations as outlined in table 2. The components are mixed in a Woulff bottle in following order: • 711 ml water • 0.18 ml trace element solution • 355.5 ml buffer solution • 355.5 ml mass element solution The completed solution is warmed up to 39° C. followed by the addition of 1.83 ml sodium salt solution and the addition of reduction solution at 36° C. The rumen liquor (750 ml) is added, when the indicator turns colorless under continued agitation and CO2-gassing. The rumen-fluid-buffer-mix is added to the glass syringe prepared as outlined above containing the TMR and the active to be tested. The syringes are then incubated for 8 hours at 39° C. under gentle agitation. After 8 the volume of gas produced is measured, and the percentage of methane in the gas phase is determined by gas chromatography.

Molecules are shown by their SMILES. Counter-ions that a name gives are not always drawn. Like-named read-outs stand apart in the source and are kept apart here.

As usually defined, the inhibition is the relative decrease from the control value, in per cent. As for `O=C(CCC(=O)OCCCO[N+](=O)[O-])OCCCO[N+](=O)[O-]` [(I-c), bis(3-(nitrooxy)propyl) succinate], the vapor pressure in series [1] is given as 0.00133 mbar. In addition, in series [2] (8 h), the inhibition at 10 µM was determined as 99%.
`O=[N+]([O-])OCCCO` [Ref, 3-nitrooxypropanol, reference compound]: the inhibition at 2.5 µM in series [2] (2.5 μmol/l, 8 h at 39° C., TMR in rumen-fluid buffer mix, reduction versus substrate control) stood at 32%. Besides, the inhibition at 5 µM in series [2] (5 μmol/l, 8 h at 39° C., TMR in rumen-fluid buffer mix, reduction versus substrate control) turned out to be 86%. The inhibition at 10 µM in series [2] (10 μmol/l, 8 h at 39° C., TMR in rumen-fluid buffer mix, reduction versus substrate control) was determined as 99%.
In series [1], `O=C(/C=C/C(=O)OCCCO[N+](=O)[O-])OCCCO[N+](=O)[O-]` [(I-b), bis(3-(nitrooxy)propyl) fumarate] displayed a vapor pressure of 0.00133 mbar. In addition, in series [2] (8 h), the inhibition at 5 µM was 96% and the inhibition at 10 µM was found to be 99%.
Regarding `O=C(CC(=O)OCCCO[N+](=O)[O-])OCCCO[N+](=O)[O-]` [(I-a), bis(3-(nitrooxy)propyl) malonate], the vapor pressure in series [1] is recorded as 0.00133 mbar. Also, in series [2] (8 h), the inhibition at 2.5 µM turned out to be 72%, the inhibition at 5 µM came out at 97% and the inhibition at 10 µM came out at 99%.
